In publication PMC9321829 (Chembiochem, 2022):

Molecular target: T1, TAL amo (Aeromonas molluscorum, UniProt R1H7C8)
T1 sequence (R1H7C8 1-531): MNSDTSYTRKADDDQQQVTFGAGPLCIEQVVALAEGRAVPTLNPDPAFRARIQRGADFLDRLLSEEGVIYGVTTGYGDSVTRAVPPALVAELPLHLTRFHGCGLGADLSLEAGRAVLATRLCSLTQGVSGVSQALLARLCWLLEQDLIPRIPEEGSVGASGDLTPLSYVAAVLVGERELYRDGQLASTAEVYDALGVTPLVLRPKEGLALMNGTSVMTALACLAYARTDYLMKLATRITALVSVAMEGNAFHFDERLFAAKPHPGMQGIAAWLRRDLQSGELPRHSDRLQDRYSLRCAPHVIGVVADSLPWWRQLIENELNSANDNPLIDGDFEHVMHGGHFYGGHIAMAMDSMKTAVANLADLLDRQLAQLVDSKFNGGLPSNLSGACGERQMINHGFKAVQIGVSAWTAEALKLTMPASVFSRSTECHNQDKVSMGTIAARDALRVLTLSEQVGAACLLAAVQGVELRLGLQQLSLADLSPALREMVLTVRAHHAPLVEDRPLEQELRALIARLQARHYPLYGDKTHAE
Assay: UV assay, cinnamic acid formation at […] nm
Assay type: biochemical
Settings: 10 mM substrate, 20 mM PBS pH 7.5, 25 °C

## N[C@@H](Cc1ccccc1)C(=O)O [L-phenylalanine]
  UV assay, cinnamic acid formation at 290 nm: They presented a slight activity towards L‐phenylalanine.
